The molecules below were run against human orexin-1 receptor (Homo sapiens (Human), UniProt O43613) (assay: In vitro assay: intracellular calcium measurements (FLIPR), antagonistic activity). Details: CHO cells, 3 nM orexin-A, compound incubation 120 min; marked values are geometric means of n = 2-6; read-out: IC50 OX1.
Assay type: cell-based

Chain of human orexin-1 receptor (O43613 whole entry): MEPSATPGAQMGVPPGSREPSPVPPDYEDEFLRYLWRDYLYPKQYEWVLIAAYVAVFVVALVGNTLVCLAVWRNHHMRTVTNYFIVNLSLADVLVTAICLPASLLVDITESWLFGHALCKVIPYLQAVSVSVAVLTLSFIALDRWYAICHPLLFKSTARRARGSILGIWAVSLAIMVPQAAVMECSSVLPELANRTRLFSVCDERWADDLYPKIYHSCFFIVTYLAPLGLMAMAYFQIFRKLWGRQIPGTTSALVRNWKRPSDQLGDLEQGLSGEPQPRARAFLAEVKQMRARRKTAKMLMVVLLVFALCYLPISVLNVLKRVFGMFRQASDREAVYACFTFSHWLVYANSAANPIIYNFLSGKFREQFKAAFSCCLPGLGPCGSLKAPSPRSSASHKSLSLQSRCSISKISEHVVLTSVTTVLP

SMILES	IC50
COc1cccc(OC)c1C1CCCC(=O)N1Cc1cccc(-c2nccs2)c1 (stereo not drawn) [Example 14, 6-(2,6-dimethoxyphenyl)-1-(3-(thiazol-2-yl)benzyl)piperidin-2-one]	4 nM
COc1cccc(OC)c1C1CCCC(=O)N1Cc1cccc2ccccc12 (stereo not drawn) [Example 15, 6-(2,6-dimethoxyphenyl)-1-(naphthalen-1-ylmethyl)piperidin-2-one]	210 nM
COc1cccc(OC)c1C1CCCC(=O)N1Cc1cccc(-c2csc(C)n2)c1 (stereo not drawn) [Example 16, 6-(2,6-dimethoxyphenyl)-1-(3-(2-methylthiazol-4-yl)benzyl)piperidin-2-one]	3 nM
COc1cccc(OC)c1C1CCCC(=O)N1Cc1cccc(N2CCOCC2)c1 (stereo not drawn) [Example 17, 6-(2,6-dimethoxyphenyl)-1-(3-morpholinobenzyl)piperidin-2-one]	210 nM
COc1cccc(OC)c1C1CCCC(=O)N1Cc1ccc(-c2ccccc2)s1 (stereo not drawn) [Example 18, 6-(2,6-dimethoxyphenyl)-1-((5-phenylthiophen-2-yl)methyl)piperidin-2-one]	117 nM
COc1cccc(OC)c1C1CCCC(=O)N1Cc1cccc(-n2cccn2)c1 (stereo not drawn) [Example 19, 1-(3-(1H-pyrazol-1-yl)benzyl)-6-(2,6-dimethoxyphenyl)piperidin-2-one]	25 nM
COc1cccc(OC)c1C1CCCC(=O)N1Cc1ccc2nccnc2c1 (stereo not drawn) [Example 20, 6-(2,6-dimethoxyphenyl)-1-(quinoxalin-6-ylmethyl)piperidin-2-one]	952 nM
COc1cccc(OC)c1C1CCCC(=O)N1Cc1cnc(-c2ccccc2)s1 (stereo not drawn) [Example 21, 6-(2,6-dimethoxyphenyl)-1-((2-phenylthiazol-5-yl)methyl)piperidin-2-one]	951 nM
COc1cccc(OC)c1C1CCCC(=O)N1Cc1cc(-c2ccccc2)ccn1 (stereo not drawn) [Example 22, 6-(2,6-dimethoxyphenyl)-1-((4-phenylpyridin-2-yl)methyl)piperidin-2-one]	166 nM
COc1cccc(OC)c1C1CCCC(=O)N1Cc1cccc(-n2cncn2)c1 (stereo not drawn) [Example 23, 1-(3-(1H-1,2,4-triazol-1-yl)benzyl)-6-(2,6-dimethoxyphenyl)piperidin-2-one]	312 nM
COc1cccc(OC)c1C1CCCC(=O)N1Cc1cccc(N2CCCC2)c1 (stereo not drawn) [Example 24, 6-(2,6-dimethoxyphenyl)-1-(3-(pyrrolidin-1-yl)benzyl)piperidin-2-one]	22 nM
COc1cccc(OC)c1C1CCCC(=O)N1Cc1cc(-c2ccccc2)on1 (stereo not drawn) [Example 25, 6-(2,6-dimethoxyphenyl)-1-((5-phenylisoxazol-3-yl)methyl)piperidin-2-one]	688 nM
COc1cccc(OC)c1C1CCCC(=O)N1Cc1cnn(-c2ccccc2)c1 (stereo not drawn) [Example 26, 6-(2,6-dimethoxyphenyl)-1-((1-phenyl-1H-pyrazol-4-yl)methyl)piperidin-2-one]	167 nM
COc1cccc(OC)c1C1CCCC(=O)N1Cc1cccc(-n2ccnc2)c1 (stereo not drawn) [Example 27, 1-(3-(1H-imidazol-1-yl)benzyl)-6-(2,6-dimethoxyphenyl)piperidin-2-one]	136 nM
COc1cccc(OC)c1C1CCCC(=O)N1Cc1cccc(N2CCCCC2)n1 (stereo not drawn) [Example 28, 6-(2,6-dimethoxyphenyl)-1-((6-(piperidin-1-yl)pyridin-2-yl)methyl)piperidin-2-one]	21 nM
COc1cccc(OC)c1C1CCCC(=O)N1Cc1cccc(-c2ncccn2)c1 (stereo not drawn) [Example 29, 6-(2,6-dimethoxyphenyl)-1-(3-(pyrimidin-2-yl)benzyl)piperidin-2-one]	14 nM
COc1cccc(OC)c1C1CCCC(=O)N1Cc1ccc2oc3ccccc3c2c1 (stereo not drawn) [Example 30, 1-(dibenzo[b,d]furan-2-ylmethyl)-6-(2,6-dimethoxyphenyl)piperidin-2-one]	2 nM
COc1cccc(OC)c1C1CCCC(=O)N1Cc1nc2ccccc2s1 (stereo not drawn) [Example 31, 1-(benzo[d]thiazol-2-ylmethyl)-6-(2,6-dimethoxyphenyl)piperidin-2-one]	941 nM

SMILES	IC50
COc1cccc(OC)c1C1CCCC(=O)N1Cc1ccc2c(c1)c1ccccc1n2C (stereo not drawn) [Example 32, 6-(2,6-dimethoxyphenyl)-1-((9-methyl-9H-carbazol-3-yl)methyl)piperidin-2-one]	50 nM
COc1cccc(OC)c1C1CCCC(=O)N1Cc1cccc(-c2noc(C)n2)c1 (stereo not drawn) [Example 33, 6-(2,6-dimethoxyphenyl)-1-(3-(5-methyl-1,2,4-oxadiazol-3-yl)benzyl)piperidin-2-one]	39 nM
COc1cccc(OC)c1C1CCCC(=O)N1Cc1ccnc(N2CCCC2)c1 (stereo not drawn) [Example 34, 6-(2,6-dimethoxyphenyl)-1-((2-(pyrrolidin-1-yl)pyridin-4-yl)methyl)piperidin-2-one]	1050 nM
COc1cccc(OC)c1C1CCCC(=O)N1Cc1csc(-c2ccccc2)n1 (stereo not drawn) [Example 35, 6-(2,6-dimethoxyphenyl)-1-((2-phenylthiazol-4-yl)methyl)piperidin-2-one]	28 nM
COc1cccc(OC)c1C1CCCC(=O)N1Cc1ccnc(Br)c1 (stereo not drawn) [Example 36, 1-((2-bromopyridin-4-yl)methyl)-6-(2,6-dimethoxyphenyl)piperidin-2-one]	1570 nM
COc1cccc(OC)c1C1CCCC(=O)N1Cc1cccc(-c2ccccn2)c1F (stereo not drawn) [Example 37, 6-(2,6-dimethoxyphenyl)-1-(2-fluoro-3-(pyridin-2-yl)benzyl)piperidin-2-one]	72 nM
COc1cccc(OC)c1C1CCCC(=O)N1Cc1cccc(-c2ccccn2)n1 (stereo not drawn) [Example 38, 1-([2,2′-bipyridin]-6-ylmethyl)-6-(2,6-dimethoxyphenyl)piperidin-2-one]	153 nM
COc1cccc(OC)c1C1CCCC(=O)N1Cc1cccc(-c2nccs2)n1 (stereo not drawn) [Example 39, 6-(2,6-dimethoxyphenyl)-1-((6-(thiazol-2-yl)pyridin-2-yl)methyl)piperidin-2-one]	179 nM
COc1cccc(OC)c1C1CCCC(=O)N1Cc1cc(-c2ccccn2)ccc1F (stereo not drawn) [Example 40, 6-(2,6-dimethoxyphenyl)-1-(2-fluoro-5-(pyridin-2-yl)benzyl)piperidin-2-one]	75 nM
COc1cccc(OC)c1C1CCCC(=O)N1Cc1ccc(F)c(-c2ccccn2)c1 (stereo not drawn) [Example 41, 6-(2,6-dimethoxyphenyl)-1-(4-fluoro-3-(pyridin-2-yl)benzyl)piperidin-2-one]	18 nM
COc1cccc(OC)c1C1CCCC(=O)N1Cc1cccc(-c2cncs2)c1 (stereo not drawn) [Example 42, 6-(2,6-dimethoxyphenyl)-1-(3-(thiazol-5-yl)benzyl)piperidin-2-one]	25 nM
COc1cccc(OC)c1C1CCCC(=O)N1Cc1cccc(-c2ncc(C)s2)c1 (stereo not drawn) [Example 43, 6-(2,6-dimethoxyphenyl)-1-(3-(5-methylthiazol-2-yl)benzyl)piperidin-2-one]	6 nM
COc1cccc(OC)c1C1CCCC(=O)N1Cc1cccc(-n2nccn2)c1 (stereo not drawn) [Example 44, 1-(3-(2H-1,2,3-triazol-2-yl)benzyl)-6-(2,6-dimethoxyphenyl)piperidin-2-one]	14 nM
COc1cccc(OC)c1C1CCCC(=O)N1Cc1cccc(-c2cscn2)c1 (stereo not drawn) [Example 45, 6-(2,6-dimethoxyphenyl)-1-(3-(thiazol-4-yl)benzyl)piperidin-2-one]	12 nM
COc1cccc(OC)c1C1CCCC(=O)N1Cc1cccc(-n2ccnn2)c1 (stereo not drawn) [Example 46, 1-(3-(1H-1,2,3-triazol-1-yl)benzyl)-6-(2,6-dimethoxyphenyl)piperidin-2-one]	440 nM
COc1cccc(OC)c1C1CCCC(=O)N1Cc1ccc2nc(C)sc2c1 (stereo not drawn) [Example 47, 6-(2,6-dimethoxyphenyl)-1-((2-methylbenzo[d]thiazol-6-yl)methyl)piperidin-2-one]	187 nM
COc1cccc(OC)c1C1CCCC(=O)N1Cc1cc(-c2ccccn2)ccc1Cl (stereo not drawn) [Example 48, 1-(2-chloro-5-(pyridin-2-yl)benzyl)-6-(2,6-dimethoxyphenyl)piperidin-2-one]	169 nM
COc1cccc(OC)c1C1CCCC(=O)N1Cc1cc(Cl)cc(-c2ccccn2)c1 (stereo not drawn) [Example 49, 1-(3-chloro-5-(pyridin-2-yl)benzyl)-6-(2,6-dimethoxyphenyl)piperidin-2-one]	28 nM

What follows are molecules tested against human orexin-2 receptor (Homo sapiens (Human), UniProt O43614) in the same assay as above. Details: CHO cells, 3 nM orexin-A, compound incubation 120 min; marked values are geometric means of n = 2-6; read-out: IC50 OX2.
Chain of human orexin-2 receptor (O43614 whole entry): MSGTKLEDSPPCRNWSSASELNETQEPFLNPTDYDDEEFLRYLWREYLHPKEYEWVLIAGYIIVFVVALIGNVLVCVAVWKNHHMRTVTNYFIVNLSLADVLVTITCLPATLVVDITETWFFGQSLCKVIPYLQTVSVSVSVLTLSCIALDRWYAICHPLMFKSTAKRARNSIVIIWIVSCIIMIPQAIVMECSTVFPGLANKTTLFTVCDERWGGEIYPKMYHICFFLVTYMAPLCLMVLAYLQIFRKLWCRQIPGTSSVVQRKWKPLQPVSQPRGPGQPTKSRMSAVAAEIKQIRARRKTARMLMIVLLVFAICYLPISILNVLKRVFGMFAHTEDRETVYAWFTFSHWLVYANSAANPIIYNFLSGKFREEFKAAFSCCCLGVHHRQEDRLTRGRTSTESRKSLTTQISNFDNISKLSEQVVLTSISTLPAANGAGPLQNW
Assay type: cell-based

SMILES	IC50
COc1cccc(OC)c1C1CCCC(=O)N1Cc1cccc(-c2nccs2)c1 (stereo not drawn) [Example 14, 6-(2,6-dimethoxyphenyl)-1-(3-(thiazol-2-yl)benzyl)piperidin-2-one]	4 nM
COc1cccc(OC)c1C1CCCC(=O)N1Cc1cccc2ccccc12 (stereo not drawn) [Example 15, 6-(2,6-dimethoxyphenyl)-1-(naphthalen-1-ylmethyl)piperidin-2-one]	23 nM
COc1cccc(OC)c1C1CCCC(=O)N1Cc1cccc(-c2csc(C)n2)c1 (stereo not drawn) [Example 16, 6-(2,6-dimethoxyphenyl)-1-(3-(2-methylthiazol-4-yl)benzyl)piperidin-2-one]	2 nM
COc1cccc(OC)c1C1CCCC(=O)N1Cc1cccc(N2CCOCC2)c1 (stereo not drawn) [Example 17, 6-(2,6-dimethoxyphenyl)-1-(3-morpholinobenzyl)piperidin-2-one]	661 nM
COc1cccc(OC)c1C1CCCC(=O)N1Cc1ccc(-c2ccccc2)s1 (stereo not drawn) [Example 18, 6-(2,6-dimethoxyphenyl)-1-((5-phenylthiophen-2-yl)methyl)piperidin-2-one]	38 nM
COc1cccc(OC)c1C1CCCC(=O)N1Cc1cccc(-n2cccn2)c1 (stereo not drawn) [Example 19, 1-(3-(1H-pyrazol-1-yl)benzyl)-6-(2,6-dimethoxyphenyl)piperidin-2-one]	26 nM
COc1cccc(OC)c1C1CCCC(=O)N1Cc1ccc2nccnc2c1 (stereo not drawn) [Example 20, 6-(2,6-dimethoxyphenyl)-1-(quinoxalin-6-ylmethyl)piperidin-2-one]	864 nM
COc1cccc(OC)c1C1CCCC(=O)N1Cc1cnc(-c2ccccc2)s1 (stereo not drawn) [Example 21, 6-(2,6-dimethoxyphenyl)-1-((2-phenylthiazol-5-yl)methyl)piperidin-2-one]	366 nM
COc1cccc(OC)c1C1CCCC(=O)N1Cc1cc(-c2ccccc2)ccn1 (stereo not drawn) [Example 22, 6-(2,6-dimethoxyphenyl)-1-((4-phenylpyridin-2-yl)methyl)piperidin-2-one]	131 nM
COc1cccc(OC)c1C1CCCC(=O)N1Cc1cccc(-n2cncn2)c1 (stereo not drawn) [Example 23, 1-(3-(1H-1,2,4-triazol-1-yl)benzyl)-6-(2,6-dimethoxyphenyl)piperidin-2-one]	471 nM
COc1cccc(OC)c1C1CCCC(=O)N1Cc1cccc(N2CCCC2)c1 (stereo not drawn) [Example 24, 6-(2,6-dimethoxyphenyl)-1-(3-(pyrrolidin-1-yl)benzyl)piperidin-2-one]	31 nM
COc1cccc(OC)c1C1CCCC(=O)N1Cc1cc(-c2ccccc2)on1 (stereo not drawn) [Example 25, 6-(2,6-dimethoxyphenyl)-1-((5-phenylisoxazol-3-yl)methyl)piperidin-2-one]	902 nM
COc1cccc(OC)c1C1CCCC(=O)N1Cc1cnn(-c2ccccc2)c1 (stereo not drawn) [Example 26, 6-(2,6-dimethoxyphenyl)-1-((1-phenyl-1H-pyrazol-4-yl)methyl)piperidin-2-one]	115 nM
COc1cccc(OC)c1C1CCCC(=O)N1Cc1cccc(-n2ccnc2)c1 (stereo not drawn) [Example 27, 1-(3-(1H-imidazol-1-yl)benzyl)-6-(2,6-dimethoxyphenyl)piperidin-2-one]	181 nM
COc1cccc(OC)c1C1CCCC(=O)N1Cc1cccc(N2CCCCC2)n1 (stereo not drawn) [Example 28, 6-(2,6-dimethoxyphenyl)-1-((6-(piperidin-1-yl)pyridin-2-yl)methyl)piperidin-2-one]	11 nM
COc1cccc(OC)c1C1CCCC(=O)N1Cc1cccc(-c2ncccn2)c1 (stereo not drawn) [Example 29, 6-(2,6-dimethoxyphenyl)-1-(3-(pyrimidin-2-yl)benzyl)piperidin-2-one]	28 nM
COc1cccc(OC)c1C1CCCC(=O)N1Cc1ccc2oc3ccccc3c2c1 (stereo not drawn) [Example 30, 1-(dibenzo[b,d]furan-2-ylmethyl)-6-(2,6-dimethoxyphenyl)piperidin-2-one]	4 nM
COc1cccc(OC)c1C1CCCC(=O)N1Cc1nc2ccccc2s1 (stereo not drawn) [Example 31, 1-(benzo[d]thiazol-2-ylmethyl)-6-(2,6-dimethoxyphenyl)piperidin-2-one]	858 nM

SMILES	IC50
COc1cccc(OC)c1C1CCCC(=O)N1Cc1ccc2c(c1)c1ccccc1n2C (stereo not drawn) [Example 32, 6-(2,6-dimethoxyphenyl)-1-((9-methyl-9H-carbazol-3-yl)methyl)piperidin-2-one]	132 nM
COc1cccc(OC)c1C1CCCC(=O)N1Cc1cccc(-c2noc(C)n2)c1 (stereo not drawn) [Example 33, 6-(2,6-dimethoxyphenyl)-1-(3-(5-methyl-1,2,4-oxadiazol-3-yl)benzyl)piperidin-2-one]	50 nM
COc1cccc(OC)c1C1CCCC(=O)N1Cc1ccnc(N2CCCC2)c1 (stereo not drawn) [Example 34, 6-(2,6-dimethoxyphenyl)-1-((2-(pyrrolidin-1-yl)pyridin-4-yl)methyl)piperidin-2-one]	2060 nM
COc1cccc(OC)c1C1CCCC(=O)N1Cc1csc(-c2ccccc2)n1 (stereo not drawn) [Example 35, 6-(2,6-dimethoxyphenyl)-1-((2-phenylthiazol-4-yl)methyl)piperidin-2-one]	5 nM
COc1cccc(OC)c1C1CCCC(=O)N1Cc1ccnc(Br)c1 (stereo not drawn) [Example 36, 1-((2-bromopyridin-4-yl)methyl)-6-(2,6-dimethoxyphenyl)piperidin-2-one]	1150 nM
COc1cccc(OC)c1C1CCCC(=O)N1Cc1cccc(-c2ccccn2)c1F (stereo not drawn) [Example 37, 6-(2,6-dimethoxyphenyl)-1-(2-fluoro-3-(pyridin-2-yl)benzyl)piperidin-2-one]	64 nM
COc1cccc(OC)c1C1CCCC(=O)N1Cc1cccc(-c2ccccn2)n1 (stereo not drawn) [Example 38, 1-([2,2′-bipyridin]-6-ylmethyl)-6-(2,6-dimethoxyphenyl)piperidin-2-one]	87 nM
COc1cccc(OC)c1C1CCCC(=O)N1Cc1cccc(-c2nccs2)n1 (stereo not drawn) [Example 39, 6-(2,6-dimethoxyphenyl)-1-((6-(thiazol-2-yl)pyridin-2-yl)methyl)piperidin-2-one]	147 nM
COc1cccc(OC)c1C1CCCC(=O)N1Cc1cc(-c2ccccn2)ccc1F (stereo not drawn) [Example 40, 6-(2,6-dimethoxyphenyl)-1-(2-fluoro-5-(pyridin-2-yl)benzyl)piperidin-2-one]	696 nM
COc1cccc(OC)c1C1CCCC(=O)N1Cc1ccc(F)c(-c2ccccn2)c1 (stereo not drawn) [Example 41, 6-(2,6-dimethoxyphenyl)-1-(4-fluoro-3-(pyridin-2-yl)benzyl)piperidin-2-one]	26 nM
COc1cccc(OC)c1C1CCCC(=O)N1Cc1cccc(-c2cncs2)c1 (stereo not drawn) [Example 42, 6-(2,6-dimethoxyphenyl)-1-(3-(thiazol-5-yl)benzyl)piperidin-2-one]	17 nM
COc1cccc(OC)c1C1CCCC(=O)N1Cc1cccc(-c2ncc(C)s2)c1 (stereo not drawn) [Example 43, 6-(2,6-dimethoxyphenyl)-1-(3-(5-methylthiazol-2-yl)benzyl)piperidin-2-one]	6 nM
COc1cccc(OC)c1C1CCCC(=O)N1Cc1cccc(-n2nccn2)c1 (stereo not drawn) [Example 44, 1-(3-(2H-1,2,3-triazol-2-yl)benzyl)-6-(2,6-dimethoxyphenyl)piperidin-2-one]	19 nM
COc1cccc(OC)c1C1CCCC(=O)N1Cc1cccc(-c2cscn2)c1 (stereo not drawn) [Example 45, 6-(2,6-dimethoxyphenyl)-1-(3-(thiazol-4-yl)benzyl)piperidin-2-one]	17 nM
COc1cccc(OC)c1C1CCCC(=O)N1Cc1cccc(-n2ccnn2)c1 (stereo not drawn) [Example 46, 1-(3-(1H-1,2,3-triazol-1-yl)benzyl)-6-(2,6-dimethoxyphenyl)piperidin-2-one]	239 nM
COc1cccc(OC)c1C1CCCC(=O)N1Cc1ccc2nc(C)sc2c1 (stereo not drawn) [Example 47, 6-(2,6-dimethoxyphenyl)-1-((2-methylbenzo[d]thiazol-6-yl)methyl)piperidin-2-one]	165 nM
COc1cccc(OC)c1C1CCCC(=O)N1Cc1cc(-c2ccccn2)ccc1Cl (stereo not drawn) [Example 48, 1-(2-chloro-5-(pyridin-2-yl)benzyl)-6-(2,6-dimethoxyphenyl)piperidin-2-one]	625 nM
COc1cccc(OC)c1C1CCCC(=O)N1Cc1cc(Cl)cc(-c2ccccn2)c1 (stereo not drawn) [Example 49, 1-(3-chloro-5-(pyridin-2-yl)benzyl)-6-(2,6-dimethoxyphenyl)piperidin-2-one]	11 nM

From US9242970B2 (ACTELION PHARMACEUTICALS LTD., priority 2010, dated 2016)
